{"source": "patent US20250127799A1", "about": "“DRUG CONJUGATES FOR BONE MARROW PROTECTION” (priority 2023, published 2025)", "key": {"[1]": {"test_system": "human bone marrow mononuclear cells", "assay": "Colony forming unit assay, protection of cells exposed to carboplatin", "type": "cell-based", "settings": "for CFU counts normalized to untreated cells: 50 μM carboplatin for 4 h", "method": "In this exemplary representative chemoprotection experiment, a colony forming unit assay was conducted for bone marrow mononuclear cells exposed to carboplatin with or without the pre-treatment with protective agents. In brief, 1.1×10^4 human bone marrow mononuclear cells were suspended in 300 μL culture medium and mixed with 30 μL solutions of PBS (control), Amifostine, WR1065, or Conjugate (with the peptide sequence of CFLG (SEQ ID NO: 18)) at various concentrations. After 2 h of incubation, cells were washed and resuspended in 300 μL culture medium, followed by incubation with 50 μM carboplatin for 4 h. Next, cells were washed and resuspended in the colony forming medium for 14 days. The number of resultant CFU in each group was then determined, and the results were normalized to the group of cells without any treatment. […] In another exemplary representative chemoprotection experiment, Amifostine and Conjugate with the peptide sequence of CFLG (SEQ ID NO: 18) with concentrations ranging from 50 to 1,000 μM were evaluated."}, "[2]": {"test_system": "A549 non-small cell lung cancer cells", "assay": "CCK-8 cellular proliferation assay, co-culture with chemodrugs", "type": "cell-based", "settings": "for cellular proliferation compared to Non-treatment Control: 72 h", "method": "In this exemplary representative experiment, a CCK-8 cellular proliferation assay was conducted for A549 non-small cell lung cancer cells exposed to the Carboplatin with or without protective agents.\nIn another exemplary representative chemoprotection experiment, Paclitaxel was used instead of Carboplatin in the CCK-8 cellular proliferation assay for A549 cells."}, "[3]": {"test_system": "Hs578T triple-negative breast cancer cells", "assay": "CCK-8 cellular proliferation assay, co-culture with chemodrugs", "type": "cell-based", "settings": "for cellular proliferation compared to Non-treatment Control: 72 h", "method": "In this exemplary representative experiment, a CCK-8 cellular proliferation assay was conducted for Hs578T triple-negative breast cancer cells exposed to the Carboplatin with or without protective agents.\nIn another exemplary representative chemoprotection experiment, Paclitaxel was used instead of Carboplatin in the CCK-8 cellular proliferation assay for Hs578T cells."}, "human HSPCs": {"test_system": "human HSPCs", "assay": "In vitro radioprotection for human HSPCs (CCK8 viability)", "settings": "for cellular viability: 50 μM for 4 h; for cellular viability compared to the group receiving no treatment at the same exposure dose: 2-8 Gy", "method": "In this exemplary representative experiment, human HSPCs were seeded in a 96-well plate at a density of 2.5×10^4 per well (N=6 for each group). Next, cells were treated with a protective drug conjugate having a peptide sequence of CAPIGIAL (SEQ ID NO: 68) with acetylation at the N-terminus (e.g., AcCAPIGIAL; SEQ ID NO: 80) or amifostine alone at the final concentrations ranging from 0 to 100 μM for 4 h, followed by exposure to y-radiation (Cs-137) at 3 or 8 Gy (0.6 Gy/min). Two hours after the irradiation, the culture medium was replaced by a fresh medium. After 24 h of further incubation, a CCK8 assay was applied to evaluate the cell viability.\nIn this exemplary representative experiment, human HSPCs were seeded in a 96-well plate at a density of 2.5×10^4 per well (N=6 for each group)."}, "CD2F1 male mice": {"test_system": "CD2F1 male mice", "assay": "In vivo radioprotective effects: 30-day survival after Cobalt-60 gamma irradiation", "settings": "for survival rate: 12 h before 9.1 Gy", "method": "(§1) CD2F1 male mice (N=16) were subcutaneously (sc) injected with a single dose of two different conjugates. For one protective drug conjugate (Conjugate 1), the tested doses were 200, 400, and 800 mg/kg. The structure of Conjugate 1 included amifostine as the protective drug, alendronate as the bone-targeting ligand, and a protease-cleavable peptide having the sequence of CKPLGLWAL (SEQ ID NO: 33) with acetylation at the N-terminus (e.g., AcCKPLGLWAL; SEQ ID NO: 74). […] The irradiated mice were monitored for survival for 30 days post-irradiation. […] For the vehicle control group, the mortalities of mice occurred during 8 to 17 days post-irradiation, and the final survival rate was 6.25% (1 out of 16 survived), indicating significant mortality by gamma-irradiation.\nFor another protective drug conjugate (Conjugate 2), the tested doses were 250, 500, 600, and 700 mg/kg, and the irradiation was conducted at 24 h post-drug administration. The structure of Conjugate 2 included amifostine as the protective drug, alendronate as the bone-targeting ligand, and a protease-cleavable peptide having the sequence of CPLGLYAL (SEQ ID NO: 29) with acetylation at the N-terminus (e.g., AcCPLGLYAL; SEQ ID NO: 76).\nas §1, with “a” for “two different conjugates. For one”, “1), and” for “1),”, “250, 300,” for “200, 400,”, “350” for “800”, “0% (0” for “6.25% (1”\nas §1, with “CD2F1 male mice (N=16) were subcutaneously (sc) injected CD2F1” for “CD2F1”, “a” for “two different conjugates. For one”, “1), and” for “1),”, “250, 300,” for “200, 400,”, “350” for “800”\nCD2F1 male mice (N=16) were subcutaneously (sc) injected CD2F1 male mice (N=16) were subcutaneously (sc) injected with a single dose of a protective drug conjugate (Conjugate 1), and the tested doses were 50, 100, and 200 mg/kg. The structure of Conjugate 1 included amifostine as the protective drug, alendronate as the bone-targeting ligand, and a protease-cleavable peptide having the sequence of CKPLGLWAL (SEQ ID NO: 33) with acetylation at the N-terminus (e.g., AcCKPLGLWAL; SEQ ID NO: 74). […] The irradiated mice were monitored for survival for […] post-irradiation. […] For the vehicle control group, the mortalities of mice occurred during 8 to 17 days post-irradiation, and the final survival rate was 0% (0 out of 16 survived), indicating significant mortality by gamma-irradiation.\nCD2F1 male mice (N=16) were subcutaneously (sc) injected CD2F1 male mice (N=16) were subcutaneously (sc) injected with a single dose of a protective drug conjugate, i.e., Conjugate 3. The tested doses were 250, 300, and 350 mg/kg. […]"}, "[4]": {"assay": "Conjugate cleavage in fresh bone marrow aspirate (HPLC)", "type": "in vitro ADME", "settings": "human bone marrow aspirate, same donor, 37° C., up to 6 h", "method": "The proteolytic cleavage of conjugates determines the therapeutic window, which is controlled by the specific peptide sequence. In a representative cleavage experiment, a […] stock solution of a conjugate (30 mg/mL) was mixed with 90 μL of fresh bone marrow aspirate, followed by incubation at 37° C. for up to 6 h. A 10 μL sample was taken every hour, diluted in 90 μL acetonitrile to precipitate proteins and extract conjugates and cleavage products. The concentrations of the conjugates in samples were determined by HPLC, normalized, and presented as the cleavage ratio."}, "[5]": {"target": "matrix metalloproteinase 9 (MMP9) (Homo sapiens, UniProt P14780)", "sequence (P14780 94-707, species assumed)": "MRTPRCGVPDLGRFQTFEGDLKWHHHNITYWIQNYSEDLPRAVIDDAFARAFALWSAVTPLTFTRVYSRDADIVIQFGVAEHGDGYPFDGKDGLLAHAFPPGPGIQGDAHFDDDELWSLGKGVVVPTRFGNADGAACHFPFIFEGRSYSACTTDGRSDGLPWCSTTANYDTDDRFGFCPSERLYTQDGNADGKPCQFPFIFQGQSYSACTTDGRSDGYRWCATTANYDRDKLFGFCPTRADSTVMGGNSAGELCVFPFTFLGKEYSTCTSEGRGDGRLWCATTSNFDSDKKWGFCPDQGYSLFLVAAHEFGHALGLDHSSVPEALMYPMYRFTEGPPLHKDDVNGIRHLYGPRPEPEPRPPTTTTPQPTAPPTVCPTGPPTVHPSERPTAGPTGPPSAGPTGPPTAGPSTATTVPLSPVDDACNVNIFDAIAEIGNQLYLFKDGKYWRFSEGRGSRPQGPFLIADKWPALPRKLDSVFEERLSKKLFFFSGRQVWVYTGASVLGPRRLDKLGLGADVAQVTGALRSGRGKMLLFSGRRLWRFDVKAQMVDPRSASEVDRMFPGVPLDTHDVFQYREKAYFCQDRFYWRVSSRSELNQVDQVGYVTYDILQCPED", "assay": "In vitro matrix metalloproteinase-based conjugate cleavage", "type": "biochemical", "settings": "isolated enzyme, MMP9, 37° C., up to 20 h, read-out: T1/2 of cleavage (converted)", "method": "In this exemplary representative cleavage experiment, a 90 μL stock solution of protective drug conjugate (1 mg/mL) was mixed with 2 μL of matrix metalloproteinase 9 (MMP9) (10 unit/μL) and 8.2 μL of 50 mM CaCl2 solution, followed by incubation at 37° C. for up to 20 h. A 10 μL sample was taken at 0.3, 1, 2, 4, 9, or 20 h for the HPLC analysis. Three conjugates having different peptide sequences (Conjugates 1-3) were used in this test: Conjugate 1-peptide sequence of CPLSLYAL (SEQ ID NO: 65); Conjugate 2-peptide sequence of CPLSLYSL (SEQ ID NO: 66); and Conjugate 3-peptide sequence of CPLGLAL (SEQ ID NO: 67). The concentrations of the conjugate residual in samples were normalized and presented as cleavage ratios."}, "[6]": {"settings": "in vivo; cited from earlier work"}}, "note": "Ends that are not written are not given here. Peptide text beside a SMILES is read from it. * marks the point of attachment. X1 = O=C(CCCCCN1C(=O)CC(*)C1=O)NCCCC(O)(P(=O)(O)O)P(=O)(O)O; X2 = O=P(O)(O)SCCNCCCN*"}
{"compound": "N.N.O=C([O-])C1(C(=O)[O-])CCC1.[Pt+2]", "note": "[Carboplatin]", "values": [{"measurement": "CFU counts normalized to untreated cells", "setting": "[1]; no protective agent (FIG. 8A)", "result": "~40", "unit": "%"}, {"measurement": "CFU counts normalized to untreated cells", "setting": "[1]; no protective agent (FIG. 8B)", "result": "~30", "unit": "%"}, {"measurement": "cellular proliferation compared to Non-treatment Control", "setting": "[2]; 0.1 mM Carboplatin", "result": "~30", "unit": "%"}, {"measurement": "cellular proliferation compared to Non-treatment Control", "setting": "[3]; 0.1 mM Carboplatin", "result": "~35", "unit": "%"}]}
{"compound": "Conjugate (AcCAPIGIAL): protective drug conjugate having peptide sequence CAPIGIAL with acetylation at the N-terminus (SEQ ID NO: 80) (Ac-CAPIGIAL; also: amifostine conjugate (site not given here))", "values": [{"measurement": "cellular viability", "setting": "human HSPCs; then 2 Gy (FIG. 6B)", "result": 91.9, "unit": "%"}, {"measurement": "cellular viability", "setting": "human HSPCs; then 8 Gy (FIG. 6A)", "result": 61.1, "unit": "%"}, {"measurement": "cellular viability", "setting": "human HSPCs; then 8 Gy (FIG. 6B)", "result": 59.6, "unit": "%"}, {"measurement": "cellular viability compared to the group receiving no treatment at the same exposure dose", "setting": "human HSPCs; 50 μM", "result": "much higher cellular viability"}, {"measurement": "cellular viability relative to the control group", "setting": "human HSPCs; 50 μM, 8 Gy", "result": "~2.3", "unit": "fold"}, {"measurement": "difference in cellular viability between conjugate and amifostine groups", "setting": "human HSPCs; 50 μM, any exposure dose from 2 Gy to 8 Gy", "result": "no statistical difference"}, {"measurement": "concentration of maximum radioprotective efficacy", "setting": "human HSPCs; 8 Gy, 0-100 μM tested", "result": 50, "unit": "µM"}, {"measurement": "radioprotective effect", "setting": "human HSPCs; 50 or 100 μM, 3 Gy", "result": "significant radioprotective effect"}]}
{"compound": "CC(=O)N[C@@H](CSC1CC(=O)N(CCCCCC(=O)NCCCC(O)(P(=O)(O)O)P(=O)(O)O)C1=O)C(=O)N[C@@H](CCCCN)C(=O)N1CCC[C@H]1C(=O)N[C@@H](CC(C)C)C(=O)NCC(=O)N[C@@H](CC(C)C)C(=O)N[C@@H](Cc1c[nH]c2ccccc12)C(=O)N[C@@H](C)C(=O)N[C@@H](CC(C)C)C(=O)NCCCNCCSP(=O)(O)O", "note": "(stereo partly shown) [Conjugate 1] (Ac-C(X1)KPLGLWAL-X2)", "values": [{"measurement": "survival rate", "setting": "CD2F1 male mice; 50 mg/kg sc", "result": 75, "unit": "%"}, {"measurement": "survival rate", "setting": "CD2F1 male mice; 100 mg/kg sc", "result": 93.75, "unit": "%"}, {"measurement": "30-day survival rate", "setting": "CD2F1 male mice; 200 mg/kg sc, 6 h before 9.2 Gy", "result": 68.75, "unit": "%"}, {"measurement": "survival rate", "setting": "CD2F1 male mice; 200 mg/kg sc", "result": 93.75, "unit": "%"}, {"measurement": "30-day survival rate", "setting": "CD2F1 male mice; 250 mg/kg sc, 9 h before 9.2 Gy", "result": 75, "unit": "%"}, {"measurement": "30-day survival rate", "setting": "CD2F1 male mice; 250 mg/kg sc, 12 h before 9.2 Gy", "result": 100, "unit": "%"}, {"measurement": "30-day survival rate", "setting": "CD2F1 male mice; 300 mg/kg sc, 9 h before 9.2 Gy", "result": 87.25, "unit": "%"}, {"measurement": "30-day survival rate", "setting": "CD2F1 male mice; 300 mg/kg sc, 12 h before 9.2 Gy", "result": 87.5, "unit": "%"}, {"measurement": "30-day survival rate", "setting": "CD2F1 male mice; 350 mg/kg sc, 9 h before 9.2 Gy", "result": 56.25, "unit": "%"}, {"measurement": "30-day survival rate", "setting": "CD2F1 male mice; 350 mg/kg sc, 12 h before 9.2 Gy", "result": 81.25, "unit": "%"}, {"measurement": "30-day survival rate", "setting": "CD2F1 male mice; 400 mg/kg sc, 6 h before 9.2 Gy", "result": 81.25, "unit": "%"}, {"measurement": "30-day survival rate", "setting": "CD2F1 male mice; 800 mg/kg sc, 6 h before 9.2 Gy", "result": 68.75, "unit": "%"}, {"measurement": "time to reach 50% conjugate cleavage", "setting": "[4]", "result": 2.4, "unit": "h"}, {"measurement": "half-life at 0.898 mg/mL", "setting": "[5]", "result": "~2", "unit": "h"}]}
{"compound": "CC(=O)O[C@H]1C(=O)[C@@]2(C)[C@H]([C@H](OC(=O)c3ccccc3)[C@]3(O)C[C@H](OC(=O)[C@H](O)[C@@H](NC(=O)c4ccccc4)c4ccccc4)C(C)=C1C3(C)C)[C@]1(OC(C)=O)CO[C@@H]1C[C@@H]2O", "note": "[Paclitaxel]", "values": [{"measurement": "cellular proliferation compared to Non-treatment Control", "setting": "[2]; 5 nM Paclitaxel", "result": "~30", "unit": "%"}, {"measurement": "cellular proliferation compared to Non-treatment Control", "setting": "[3]; 5 nM Paclitaxel", "result": "~35", "unit": "%"}]}
{"compound": "NCCCNCCSP(=O)(O)O", "note": "[Amifostine]", "values": [{"measurement": "cellular viability compared to the group receiving no treatment at the same exposure dose", "setting": "human HSPCs; 50 μM", "result": "much higher cellular viability"}, {"measurement": "mitigation of Carboplatin-caused CFU reduction", "setting": "[1]; pretreatment 50 to 1,000 μM, dose-dependent (FIG. 8B)", "result": "significantly mitigated"}, {"measurement": "toxicity to A549 cells", "setting": "[2]; 10 to 200 μM", "result": "non-toxic"}, {"measurement": "toxicity to Hs578T cells", "setting": "[3]; 10 to 200 μM", "result": "non-toxic"}, {"measurement": "bone marrow residence time", "setting": "[6]", "result": "< 30", "unit": "min"}, {"measurement": "pharmacokinetic circulating time", "setting": "[6]", "result": "< 8", "unit": "min"}]}
